The results in this text go back to patent US20230407321A1, “METHOD TO DELIVER CHEMICALS AND NUCLEIC ACIDS TO PLANT CELLS USING CELLULOSE NANOCRYSTALS AS A CARRIER” (BOARD OF TRUSTEES OF THE UNIVERSITY OF ARKANSAS, priority 2022, published 2023).

The subject of assay [1] is N. tabacum callus culture. Briefly: Tobacco callus growth on MS media with 2,4-D, CNC or CNC-2,4-D conjugate. Type of assay: cell-based, Nicotiana tabacum. The conditions noted are these: reduced amount of 2,4-D (0.4 mg/L or equivalent), 35 days in the dark, total fresh weight. How it is done:
To understand if CNC can deliver a plant hormone that encourages cell division to plants, CNCs conjugated with 2,4-D were added to MS medium. 2,4-D was selected for conjugation based on the extensive use of this synthetic auxin as both a plant growth regulator commonly employed in tissue cultures and as an active ingredient in commercial herbicides. At a modest dose of 1 mg/L, 2,4-D can act as a positive growth regulator and is commonly used in plant cell cultures. […] To estimate if the conjugation of CNC and 2,4-D can improve the uptake of 2,4-D, the total biomass of callus tissues cultivated on media containing 2,4-D was measured. N. tabacum calli were seeded on media containing either a standard dose of 2,4-D (1 mg/L) or a reduced dose of 2,4-D (0.4 mg/L) both conjugated and non-conjugated with CNC. […]
N. tabacum callus culture that was established by Khodakovskaya et al. was used in experiments. […] Callus growth was on the following mediums was assessed: MS medium (no 2,4-D supplement); MS medium supplemented with reduced dose of 2,4-D (0.4 mg/L); MS medium supplemented only with CNC (0.4 mg/L); MS medium supplemented with non-conjugated CNC (0.4 mg/L) and 2,4-D (0.4 mg/L); and MS medium supplemented with CNC-2,4-D conjugate (with 0.4 mg/L 2,4D). Total produced cell biomass was evaluated by measurement of total fresh weight of callus culture generated in the end of cultivation period.

Assay [2] deals with Arabidopsis thaliana leaves. Briefly: Confocal microscopy uptake of CNC-DTAF by Arabidopsis leaves. Type of assay: cell-based. The conditions noted are these: free CNC or DTAF in doses comparable with amounts in the CNC-DTAF conjugate (negative controls), 4 hours. How it is done: To evaluate entry of synthesized CNC-dye conjugates into leaves, 12-day-old Arabidopsis thaliana seedlings were soaked with CNC-DTAF conjugate solution for 4 hours. Additionally, both protoplasts and callus cells of Nicotiana tabacum were incubated with CNC-FITC conjugate for 4 hours, as shown in FIG. 4A. All samples were imaged with confocal microscopy. The fluorescence of CNC-DTAF and CNC-FITC stained samples was digitally measured to determine the difference in signal intensity between conjugate-treated and untreated plant samples.
FIGS. 4B-F show fluorescence intensity images and measured fluorescence intensity (f) of Arabidopsis leaves incubated with water (FIG. 4B), CNC (FIG. 4C), DTAF (FIG. 4D) and CNC-DTAF conjugates (FIG. 4E), for 4 hours.
This observation indicated the ability of CNC to penetrate the cell wall and deliver dye inside the cell.
Leaves of 12-day-old A. thaliana seedlings were soaked in water (control), DTAF solution, CNC solution, or DTAF-CNC solution (1 mg/mL) for 4 hours and then intensively washed with ddH2O to fully remove residual treatments. Both freshly isolated N. tabacum protoplasts and callus cells that were cultivated for 20 days on standard Murashige and Skoog medium (MS medium) were immersed into 1 mg/mL of FITC-CNC conjugate or solution CNC and allowed to incubate for 4 hours. […]

For `O=C(O)COc1ccc(Cl)cc1Cl` [2,4-D, 2,4-dichlorophenoxyacetic acid], in assay [1], the “cell growth compared to medium with regular dose of 2,4-D (1 mg/L)” value is recorded as “suppressed cell growth”.
On to `Cl.O=C1OC2(c3ccc(O)cc3Oc3cc(O)ccc32)c2ccc(Nc3nc(Cl)nc(Cl)n3)cc21` [DTAF, 5-[(4,6-Dichlorotriazin-2-yl)amino]fluorescein hydrochloride], for which the “fluorescence observed in leaves” value in assay [2] is “only slight autofluorescence”.
